Article PMC11672137, “High-Affinity Lectin Ligands Enable the Detection of Pathogenic Pseudomonas aeruginosa Biofilms: Implications for Diagnostics and Therapy” (JACS Au, 2024)
Several values for one entry are separate records, joined by “and”; a condition that tells them apart may be missing. Equal values may be shown once.

Columns and labels:
[1] = biological target: T1, LecA (Pseudomonas aeruginosa, UniProt Q05097); assay: Isothermal titration calorimetry with LecA; type: binding; conditions: for -TΔS (ITC, average) / N (ITC stoichiometry, average) / ΔG (ITC, average) / ΔH (ITC, average): LecA, average ± s.d.
T1 construct: made in house
T1 sequence (Q05097 whole entry): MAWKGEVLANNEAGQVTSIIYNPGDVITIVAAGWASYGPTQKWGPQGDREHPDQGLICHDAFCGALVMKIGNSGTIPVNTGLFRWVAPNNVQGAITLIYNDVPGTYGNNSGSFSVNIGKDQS
Method: (§1) Next, binding of the optimized divalent ligand 17 and its synthetic precursor 16 to LecA was evaluated by fluorescence polarization-based (FP) assays,[47] SPR, and ITC. […] Therefore, fluorescent ligand 17 was analyzed in a direct binding experiment by FP. […] The dissociation constants for 16 were 47.2 ± 11.3 nM (ITC) and 47.8 ± 44.1 nM (steady-state SPR), while for 17, the values were 64.1 ± 31.1 nM and 79.3 ± 24.9 nM (steady-state SPR). For the SPR experiments, Kd was also determined by single-cycle kinetic analysis resulting in approximately five times higher affinity, but the data have limited reliability due to suboptimal fit for the kinetic curves (Figures S13B and S14).[58]−[60]
Figure 3 Evaluation of the optimized fluorescent ligand 17 and its synthetic precursor 16 in LecA binding using thermodynamic analysis by ITC. Data for one representative experiment are depicted. Averages and standard deviation from at least three independent experiments (*two independent experiments). TEXT PRINTED IN THE PICTURE: 16: ΔG [kJ/mol]: -41.9 ± 0.6*; ΔH [kJ/mol]: -89.3 ± 0.8*; -TΔS [kJ/mol]: 47.4 ± 1.4*; N: 0.47 ± 0.03*; Kd [nM]: 47.2 ± 11.3* | 17: ΔG [kJ/mol]: -41.4 ± 1.2; ΔH [kJ/mol]: -83.5 ± 3.2; -TΔS [kJ/mol]: 42.1 ± 4.3; N: 0.50 ± 0.03; Kd [nM]: 64.1 ± 31.1 […]
Isothermal titration calorimetry (ITC) was performed on an iTC200 (Malvern Panalytical) and the data were analyzed using Microcal Origin software (Malvern Panalytical).
LecA (50 µM) in the cell was titrated with ligand (100 µM or 200 µM) in TBS/Ca2+ buffer supplemented with 5% DMSO at 25 °C. Steep titration slopes achieved with the divalent ligands were the result of high amount of protein present and the high binding affinity of the ligand (high ‘value of c’).22 However, LecA protein concentration lower than 50 µM resulted in insufficient signal as a consequence of the low heat released upon binding.
Figure S15: ITC measurements of divalent alkyne ligand 16 with LecA performed in TBS/Ca2+ buffer with 5% […]
Figure S16: ITC measurements of divalent fluorescent ligand 17 with LecA performed in TBS/Ca2+ buffer with […]
50 µM LecA 50 µM LecA 50 µM LecA

[2] = biological target: T1, LecA; assay: Surface plasmon resonance, LecA binding
Method: as §1, with “S14).[58]−[60] […]” for “S14).[58]−[60]”
Surface plasmon resonance experiments were performed on a BIACORE X100 instrument (GE Healthcare) at 25 °C as described by Zahorska et. al..2 Averages and standard deviations were calculated from three independent experiments. […]
Stability and LecA binding and inhibition of divalent LecA ligands
100 Expe rime ntal data 1:1 fi t 120 Expe rime ntal data 1:1 fi t
100 Expe rime ntal dataSame well1:1 fi t 80 Expe rime ntal data 1:1 fi t
-20 Time [s] -20 Times [s]
100 Expe rime ntal data 1:1 fi t 80 Expe rime ntal data 1:1 fi t mode l
-20 Time [s] -20 Time [s]
(§2) Figure S7: SPR of divalent LecA acylhydrazone ligand S36 and divalent fluorescent ligand S31. Sensorgrams obtained from SPR single-cycle kinetics experiments. Five different concentrations of each compound (0, 10, 50, 100, 200 nM) were sequentially injected to obtain the experimental sensorgrams (orange lines), which were then fitted by a 1:1 model (blue lines) on BIACORE evaluation software.
(also on this page, place not known: 561 and ZAA-116 ZAA-112 100012001400 Response [RU] Experimental fit 100012001400 Response [RU] Experimental fit 100012001400 Response [RU] Experimental fit Response [RU] Experimental fit Response [RU] Experimental fit model 100012001400 Response [RU] Experimental data 1:1 fit Same well) […]
0 kon koff kinetic equilibrium#
Figure S13:C Evaluation of the optimized fluorescent ligand Time (min)17 and its synthetic precursor Time (min)16 in LecA […]
binding assays. (A) Competitive binding (top) and direct binding (bottom) by fluorescence polarization. (B) Kinetic and equilibrium analysis by SPR (0.20 #values with limited reliability, equilibrium not fully reached). Data for one representative experiment are depicted in A0.00ZAA-202 and B. Averages and std. dev. from at least three independent 0.00ZAA-203 […]
30 -0.4Expe rime ntal data0 1:1 fi t 25 -0.20Expe rime ntal data 1:1 fi t […]
25 Expe rime ntal data 1:1 fi t Expe rime ntal data 1:1 fi t
15 Molar Ratio 25 Molar Ratio […]
as §2, with “S14:” for “S7:”, “LecA” for “LecA acylhydrazone”, “16” for “S36”, “17.” for “S31.”

[3] = biological target: T1, LecA; assay: Direct binding assay based on fluorescence polarization, titration with LecA; conditions: read-out: Kd (direct binding, fluorescence polarization); LecA titrated to fluorescent probe, TBS/Ca2+ buffer
Method: The binding affinities of imaging probes 2–4 for LecA were determined using a direct binding assay based on fluorescence polarization (FP).[47]
(A, C) Monovalent LecA imaging probes 2–4 based on phenyl β-D-galactoside (1) were titrated with LecA. […] (E) Xyloside-fluorescein conjugate (8) and azido fluorescein (9) served as negative controls in titrations with LecA and LecB, respectively. Averages and standard deviations were determined from at least three independent titrations of technical triplicates each.
Direct binding affinity determination of LecA and LecB imaging probes was performed with direct titration of protein and imaging probes in TBS/Ca2+ buffer. Protein dilution series was prepared in 96 well plates and 10 µL of each dilution in triplicates were mixed with 10 µL of fluorescent compound (20 nM) in 384-well microtiter plates (Greiner Bio-One, Germany, cat no 781900). The plates were centrifuged (1 min, 500 g), sealed and incubated for 2 h in dark wet chamber under gentle shaking. Fluorescence was measured on a PheraStar FS plate reader (BMG Labtech GmbH, Germany) with excitation filters at 485 nm and emission filters at 535 nm. The data were analysed with MARS Data Analysis Software (BMG Labtech GmbH, Germany) to calculate Kd values.

[4] = individual experiments, 50 µM LecA

Row | Compound | Kd ([1]; Kd (ITC, average), LecA 50 µM, TBS/Ca2+ with 5% DMSO, 25 °C, average ± s.d. (16: two experiments)) | Kd ([1]; Kd (ITC, single titration), individual experiments, 50 µM LecA) | -TΔS (ITC, average) ([1]; 25 °C) | N (ITC stoichiometry, average) ([1]; 25 °C) | ΔG (ITC, average) ([1]; 25 °C) | ΔH (ITC, average) ([1]; 25 °C) | -TΔS (ITC, single titration) [1, 4] | N (ITC, single titration) [1, 4] | ΔG (ITC, single titration) [1, 4] | ΔH (ITC, single titration) [1, 4] | Kd ([2]; equilibrium Kd (steady-state SPR), values with limited reliability, equilibrium not fully reached) | Kd ([2]; kinetic Kd (SPR), single-cycle kinetics, limited reliability, suboptimal fit) | koff ([2]; read-out: koff (SPR)) | kon ([2]; read-out: kon (SPR)) | Kd [3] | Kd ([1]; read-out: Kd (ITC, average), LecA 50 µM, TBS/Ca2+ with 5% DMSO, 25 °C, average ± s.d. (16: two experiments)) | Kd ([1]; read-out: Kd (ITC, single titration), individual experiments, 50 µM LecA) | Kd ([2]; read-out: equilibrium Kd (steady-state SPR), values with limited reliability, equilibrium not fully reached) | Kd ([2]; read-out: kinetic Kd (SPR), single-cycle kinetics, limited reliability, suboptimal fit)
1 | C#CCCN(Cc1ccc(NC(=O)CCc2ccc(O[C@@H]3O[C@H](CO)[C@H](O)[C@H](O)[C@H]3O)cc2)cc1)Cc1ccc(NC(=O)CCc2ccc(O[C@@H]3O[C@H](CO)[C@H](O)[C@H](O)[C@H]3O)cc2)cc1 [compound 16] | 0.0472 ± 0.0113 µM | 0.036 µM and 0.0585 µM | 11.3 ± 0.335 kcal/mol | 0.47 ± 0.03 | -10 ± 0.14 kcal/mol | -21.3 ± 0.19 kcal/mol | 48,8 kJ/mol and 45,9 kJ/mol | 0,45 and 0,50 | -41,3 kJ/mol and -42,5 kJ/mol | -90,1 kJ/mol and -88,5 kJ/mol | 0.0478 ± 0.0441 µM | 0.0099 ± 0.0005 µM | 0.00359 ± 0.0013 s⁻¹ | 359000 ± 110000 M⁻¹ s⁻¹ | – | – | – | – | –
2 | O=C(CCc1ccc(O[C@@H]2O[C@H](CO)[C@H](O)[C@H](O)[C@H]2O)cc1)Nc1ccc(CN(CCc2cn(CCOCCOCCOCCNC(=S)Nc3ccc4c(c3)C(=O)OC43c4ccc(O)cc4Oc4cc(O)ccc43)nn2)Cc2ccc(NC(=O)CCc3ccc(O[C@@H]4O[C@H](CO)[C@H](O)[C@H](O)[C@H]4O)cc3)cc2)cc1 [compound 17] | – | – | 10.1 ± 1.03 kcal/mol | 0.50 ± 0.03 | -9.89 ± 0.287 kcal/mol | -20 ± 0.765 kcal/mol | 38,3 kJ/mol and 39,8 kJ/mol and 48,2 kJ/mol | 0,46 and 0,52 and 0,51 | -42,9 kJ/mol and -41,5 kJ/mol and -39,8 kJ/mol | -81,2 kJ/mol and -81,3 kJ/mol and -88,1 kJ/mol | – | – | – | – | 1.05 ± 0.12 µM | 0.0641 ± 0.0311 µM | 0.0313 µM and 0.0553 µM and 0.106 µM | 0.0793 ± 0.0249 µM | 0.0193 ± 0.0105 µM
